These results are taken from publication PMC3558989 (Journal of Chemotherapy (Florence, Italy), 2013).

Data set [1] deals with MSSA 29213, MRSA A6250596 (fluoroquinolone-resistant) and MRSA A7080336. The data set is described as follows: Further combination study of AFN-1252. Type of data set: cell-based, S. aureus. The following applies: three strains.
Another data set relates to S. aureus Smith. The following applies: single oral dose of 1 mg/kg, mouse; cited from earlier work.
For data set [2], the system named is 20 strains of staphylococci, including 10 MRSA. The data set is described as follows: MIC with and without pulmonary surfactant, all strains. Type of data set: cell-based, S. aureus. The following applies: for effect of pulmonary surfactant on MICs: in words.
Another data set in a line: in vitro. To be noted: mouse.
For data set [3], the system named is serum proteins of mouse, rat, dog and humans. The experiment in a line: Serum protein-binding assays, summary over methods and species. Type of data set: in vitro ADME, human.
The next data set concerns MRSA 1659. The experiment in a line: Effect of serum on rate of kill. It counts as cell-based, S. aureus. The following applies: for reduction in the viable count: 10 hours.
The next data set concerns MSSA 29213. The data set is described as follows: Effect of serum binding on MIC.

On to `COc1c(N2CCNC(C)C2)c(F)cc2c(=O)c(C(=O)O)cn(C3CC3)c12` (stereo not shown) [gatifloxacin], for which, in data set [1], the “interaction with AFN-1252” value is reported as “did not detect any synergy or antagonism”.

As to `CC[C@H]1OC(=O)[C@H](C)[C@@H](O[C@H]2C[C@@](C)(OC)[C@@H](O)[C@H](C)O2)[C@H](C)[C@@H](O[C@@H]2O[C@H](C)C[C@H](N(C)C)[C@H]2O)[C@](C)(O)C[C@@H](C)CN(C)[C@H](C)[C@@H](O)[C@]1(C)O` [azithromycin], the “interaction with AFN-1252” value in data set [1] is on record as “did not detect any synergy or antagonism”.

What is called fraction unbound is the share of the substance not bound to proteins or other matrix. Higher therefore signals much free substance. For `Cc1c(CN(C)C(=O)/C=C/c2cnc3c(c2)CCC(=O)N3)oc2ccccc12` [AFN-1252], the “protection from lethal peritoneal infection” value in the data set on S. aureus Smith is 100%. In data set [2], the “effect of pulmonary surfactant on MICs” value is reported as “not affected”. The molecule further displayed a fraction unbound in “in vitro” of 0.06 to 0.08. In addition, the “serum binding, equilibrium dialysis” value in data set [3] (all serum types, all concentrations) is “exceeded 95%”. Further, the “binding to serum proteins” value in data set [3] (mouse, rat, dog and humans, overall) is reported as roughly 95%. Besides, the “effect on viable count” value in the data set on MRSA 1659 (75% human serum, 8× MIC) is “bacteriostatic activity”; with MRSA 1659 (75% mouse serum, 64× MIC), “bacteriostasis”. Moreover, the “reduction in the viable count” value was 2 log10 in the data set on MRSA 1659 (75% human serum, 64× MIC); 1–2 log10 in the data set on MRSA 1659 (absence of serum, 4× MIC); 4 log in the data set with MRSA 1659 (absence of serum, 64× MIC). Moreover, the “increase in MIC” value in the data set on MSSA 29213 (4% human serum albumin in CAMHB) and in the data set on MSSA 29213 (50% human serum vs serum-free CAMHB) was 8 fold each time. The “binding from MIC shift” value in the data set on MSSA 29213 (50% serum) was “approximately 90%”.

With penicillin, the “interaction with AFN-1252” value in data set [1] is reported as “did not detect any synergy or antagonism”.

For the molecule `CN[C@H](CC(C)C)C(=O)N[C@H]1C(=O)N[C@@H](CC(N)=O)C(=O)N[C@H]2C(=O)N[C@H]3C(=O)N[C@H](C(=O)N[C@H](C(=O)O)c4cc(O)cc(O)c4-c4cc3ccc4O)[C@H](O)c3ccc(c(Cl)c3)Oc3cc2cc(c3O[C@@H]2O[C@H](CO)[C@@H](O)[C@H](O)[C@H]2O[C@H]2C[C@](C)(N)[C@H](O)[C@H](C)O2)Oc2ccc(cc2Cl)[C@H]1O` [Vancomycin], the “effect of pulmonary surfactant on MICs” value in data set [2] is “generally unaffected”.

Regarding `CO/N=C(\C(=O)N[C@@H]1C(=O)N2C(C(=O)O)=C(CSc3nc(=O)c(=O)[nH]n3C)CS[C@H]12)c1csc(N)n1` [ceftriaxone], the “interaction with AFN-1252” value in data set [1] is on record as “did not detect any synergy or antagonism”.

`C[C@H]1COc2c(N3CCN(C)CC3)c(F)cc3c(=O)c(C(=O)O)cn1c23` [Levofloxacin]: the “interaction with AFN-1252” value in data set [1] was “did not detect any synergy or antagonism”.

Regarding `CO/N=C(\C(=O)N[C@@H]1C(=O)N2C(C(=O)O)=C(COC(N)=O)CS[C@H]12)c1ccco1` [Cefuroxime], the “interaction with AFN-1252” value in data set [1] is listed as “did not detect any synergy or antagonism”.

Regarding `CCCCCCCCCC(=O)N[C@@H](Cc1c[nH]c2ccccc12)C(=O)N[C@H](CC(N)=O)C(=O)N[C@@H](CC(=O)O)C(=O)N[C@@H]1C(=O)NCC(=O)N[C@@H](CCCN)C(=O)N[C@@H](CC(=O)O)C(=O)N[C@H](C)C(=O)N[C@@H](CC(=O)O)C(=O)NCC(=O)N[C@H](CO)C(=O)N[C@@H]([C@H](C)CC(=O)O)C(=O)N[C@@H](CC(=O)c2ccccc2N)C(=O)O[C@@H]1C` [Daptomycin], in data set [2] (presence of surfactant at 0·8 mg/ml), the “elevation of MICs” value was “at least 32 fold”.

For the molecule `C[C@@H](O)[C@H]1C(=O)N2C(C(=O)O)=C(S[C@@H]3CN[C@H](C(=O)N(C)C)C3)[C@H](C)[C@H]12` [meropenem], the “interaction with AFN-1252” value in data set [1] was “did not detect any synergy or antagonism”.
